Test results taken from the METLIN SMRT retention time set (Domingo-Almenara et al. 2019).

Experiment: gradient 5% acetonitrile 3 min, to 50% in 2 min, to 85% in 15 min, held 3 min, 100 µL/min
Details: column: Zorbax Extend-C18 2.1 x 50 mm; eluents: water / acetonitrile, 0.1% formic acid
Summary of the method: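 Retention times of pure standards were taken from adduct peaks that were selected by computer and manually inspected. Over 3 months, mixtures of ~100 molecules were run by HPLC–quadrupole time-of-flight mass spectrometry in positive and negative ionization mode. The Zorbax Extend-C18 column (2.1 × 50 mm, 1.8 μm) ran at 100 μL/min in water and acetonitrile, each containing 0.1% formic acid, with 40 μL dead volume and 900 μL dwell volume.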

| RP-LC retention time [s] | SMILES |
| --- | --- |
| 686 | CC1CCN(S(=O)(=O)c2ccc(-c3nnc(C(=O)NCCN4CCCC4)o3)cc2)CC1 |
| 915 | O=C(Cc1csc2nc(-c3ccccc3)cn12)N1CCN(c2ccc(Cl)cc2)CC1 |
| 965 | CC(C)c1cccc2sc(NC(=O)C3CCCN(S(C)(=O)=O)C3)nc12 (stereo not drawn) |
| 764 | CCN1C(=O)c2c(C(=O)NCc3ccc(F)cc3)ncn2CC1(C)C(=O)NC1CCCC1 (stereo not drawn) |
| 1100 | CCn1cc(-c2nc(CC(=O)Nc3ccc(Cl)cc3F)cs2)c2cccnc21 |
| 858 | O=C(Nc1ccc2c(c1)OCO2)c1c(O)c2ccccc2n(-c2ccccc2)c1=O |
| 1110 | COC(=O)c1sccc1NC(=O)Cn1c(C)cc(C)c(-c2nc(-c3ccc(C)cc3)no2)c1=O |
| 682 | Cc1ccn2c(NC(=O)c3cccc(Cl)c3)c(-c3ccccc3)nc2c1 |
| 902 | COc1cc(C(=O)N2CCC3(CC2)Nc2ccccc2-n2cccc23)cc(OC)c1OC |
| 598 | Cc1ccc2c(Nc3ccc(F)c(C#N)c3)c(C(=O)N3CCOCC3)cnc2n1 |
| 626 | O=C(NCCN1CCN(C(=O)c2ccc(Br)cc2)CC1)C(=O)NCc1ccco1 |
| 862 | O=C1CC(c2nc(-c3ccc4c(c3)OCO4)no2)CN1c1ccc2c(c1)OCO2 (stereo not drawn) |
| 1010 | Cc1nn2c(CNS(=O)(=O)c3ccc(C(C)C)cc3)c(-c3ccccc3)nc2s1 |
| 752 | COc1ccc(NC(=O)C2CC(=O)N(c3n[nH]c4cccc(F)c34)C2)cc1Cl (stereo not drawn) |
| 1240 | CCOC(=O)c1cnc2cc(Cl)c(OC)cc2c1N1CCN(c2cccc(Cl)c2)CC1 |
| 799 | CC(C)NC(=O)N1CCCC(c2cccc(C(=O)NCc3cccs3)c2)C1 (stereo not drawn) |
| 1160 | CNC(=O)c1ccsc1NC(=O)c1cccc(C(F)(F)F)c1 |
| 749 | O=C(c1ccc2ccnc(N3CCN(c4ccc(F)cc4)CC3)c2c1)N1CCN(c2ncccn2)CC1 |
| 1080 | Brc1cccc(-c2nnc(Cc3nc(-c4ccccc4)no3)o2)c1 |
| 727 | COc1ccc(CC(=O)N2CCCC2c2c(C)noc2C)cc1 (stereo not drawn) |
| 1070 | COc1ccc(-c2nnc(-c3ccccc3)o2)cc1S(=O)(=O)N1CCCCCC1 |
| 660 | Cc1noc(CN2CCN(C3CCN(Cc4cc(C(F)(F)F)ccc4Cl)C3)C2=O)n1 (stereo not drawn) |

| RP-LC retention time [s] | SMILES |
| --- | --- |
| 1250 | CC1CCCCN1S(=O)(=O)c1ccc2nc(N3CCN(c4cccc(Cl)c4)CC3)ccc2c1 (stereo not drawn) |
| 780 | Fc1cc(F)cc(-c2nnc(Cc3nc(-c4ccncc4)no3)o2)c1 |
| 723 | COCc1c(C(=O)O)nnn1-c1ccc(F)c(F)c1 |
| 926 | COC(=O)C1=CN(c2ccc(N(C)C)cc2)c2cc(F)ccc2S1(=O)=O |
| 618 | CN(C)C(=O)c1n[nH]c2c1CN(C(=O)c1ccccc1F)CC2 |
| 742 | CCn1cnc2ccc(-c3noc(-c4ccccc4OC)n3)cc21 |
| 1080 | O=C(Cn1cnc2c(sc3nc(-c4ccccc4)ccc32)c1=O)Nc1cccc(Cl)c1 |
| 970 | Cc1ccc(C)c(NS(=O)(=O)c2ccc3c(c2)C(=O)N(C)c2ncccc2O3)c1 |
| 570 | O=C(c1ccncc1)N1CC(C(=O)N2CCN(c3ccccn3)CC2)C2(CCCCC2)C1 (stereo not drawn) |
| 594 | O=C(c1ccoc1)N1CCCC(c2cc(-c3ccccc3)n[nH]2)C1 (stereo not drawn) |
| 875 | CCOc1ccc(NC(=O)CCc2cccc3[nH]ccc23)cc1 |
| 736 | Cc1ccc(Cl)cc1NC(=O)N1CCC(c2cc(N)on2)CC1 |
| 755 | O=C(C1=CN(c2cccc(F)c2)c2cc(F)ccc2S1(=O)=O)N1CCOCC1 |
| 645 | CCCN1C(=O)COc2cc(-c3noc(C(=O)NCC4CCCN4CC)n3)ccc21 (stereo not drawn) |
| 1140 | O=c1c2ccccc2c(-c2nc(-c3ccncc3)no2)cn1-c1ccc(Cl)cc1 |
| 1280 | COc1cccc(-c2csc(Cc3nc(-c4ccc(Br)cc4)no3)n2)c1 |
| 597 | Oc1ccccc1Nc1ccccn1 |
| 565 | CCOc1ccc(C(=O)N2CCc3nc[nH]c3C2)cc1 |
| 744 | CCOc1ccccc1CNC(=O)CCc1c(-c2ccc(Br)cc2)nc2ccccn12 |
| 1010 | Cc1ccc(-c2ccc3nn(Cc4cccc(Br)c4)c(=O)n3n2)cc1C |
| 553 | Cc1cc(NC(=O)CSc2nnc(CCc3nc4ccccc4[nH]3)o2)no1 |
| 823 | COc1ccc(N2CCN(c3cc(SCC(=O)NCc4ccccc4)ncn3)CC2)cc1 |

| RP-LC retention time [s] | SMILES |
| --- | --- |
| 697 | Cc1cc(C(=O)NCC(C)C)c2cccc(C)c2n1 |
| 837 | Cc1ccccc1S(=O)(=O)N(C)CC1CCOCC1 |
| 1150 | Cc1cccc(NS(=O)(=O)c2cc(-c3cc(C(F)(F)F)on3)sc2C)c1 |
| 719 | O=C1C(c2ccncc2)N(CCCc2ccccc2)C(=O)CN1c1ccccc1 (stereo not drawn) |
| 797 | COc1ccc2[nH]cc(CCNC(=O)CN3C(=O)CCn4nc(-c5cn(C)c6ccccc56)cc43)c2c1 |
| 1020 | COc1ccc(-c2nc(N(CC(C)C)CC(C)C)c3ccccc3n2)cc1 |
| 661 | COc1ccccc1N1CCN(C(=O)Cn2ncc3c(c2=O)N(C)C(=O)CS3)CC1 |
| 791 | CCSc1nnc(-c2nn(C)c3c2CN(C(=O)C2CCCCC2)CC3)n1C |
| 632 | COc1cccc(CNC(=O)c2cn3ccc(C)cc3n2)c1OC |
| 745 | CCc1ccc(S(=O)(=O)N2C[C@@H](F)C[C@H]2C(=O)N2CCOCC2)cc1 |
| 604 | O=C(Nc1ccc2c(c1)OCCO2)N1CC2(CCCCC2)CC1COc1ccncc1 (stereo not drawn) |
| 1020 | CCOC(=O)c1cc2ccsc2n1CC(=O)Nc1ccc(F)c(F)c1 |
| 904 | Cc1cccc2c(C(N)=O)cc(-c3ccccc3)nc12 |
| 673 | COc1cccc(CC(=O)NC2CCN(c3cc(-c4ccccc4)[nH]n3)C2)c1 (stereo not drawn) |
| 1310 | CCCCc1ccc(NC(=O)CSc2cc(N3CCN(c4ccc(OC)cc4)CC3)ncn2)cc1 |
| 734 | CCOc1ccc(-n2nnnc2CNC(=O)CCCN2C(=O)c3ccccc3C2=O)cc1 |
| 557 | O=C(c1ccsc1)N1CCN(c2ncnc3c2CCC3)CC1 |
| 1030 | O=C(Nc1ccc(Br)c(F)c1)c1cnc(-c2ccccc2)nc1-c1ccncc1 |
| 589 | CCN(CC)CCNC(=O)c1cc2n(n1)CC(C)(C(=O)NCc1ccc(F)cc1)N(C)C2=O (stereo not drawn) |
| 884 | Cc1ccc2c(c1)N(C(=O)Cn1c(=O)c(CCC(=O)NCC(C)C)nc3ccccc31)CCO2 |
| 832 | CCOC(=O)C1C(=O)C(C(=O)OCC)C(c2ccccc2)NC1c1ccccc1 (stereo not drawn) |
| 849 | CS(=O)(=O)N1CCCc2ccc(NS(=O)(=O)c3ccc(Cl)s3)cc21 |

| RP-LC retention time [s] | SMILES |
| --- | --- |
| 782 | Cc1ccc(-c2nc3nc(C)cc(NC(C)C)n3n2)cc1 |
| 879 | Cc1cc(C)cc(NC(=O)Cn2c(=O)n(-c3ccc(F)cc3)c(=O)c3c2cc(C)n3C)c1 |
| 693 | O=C(Cn1c(C(F)(F)F)nc2cc3c(cc21)OCCO3)NCC1CCCO1 (stereo not drawn) |
| 1100 | Cc1cccc(-n2c(=O)c3sccc3n(Cc3nc(-c4ccc(F)c(Cl)c4)no3)c2=O)c1 |
| 780 | CCn1c(=O)c2c(cc(C)n2C)n(CC(=O)Nc2ccc(F)cc2)c1=O |
| 584 | O=C(NCCCN1CCOC(c2ccccc2)C1)NC1CCCCC1 (stereo not drawn) |
| 669 | O=C(CSc1nnc(-c2ccncc2)o1)Nc1cccc([N+](=O)[O-])c1 |
| 945 | CCc1ccc2c(c1)cc(S(=O)(=O)c1ccccc1)c(=O)n2CC(=O)NC(C)CC (stereo not drawn) |
| 945 | CC1CCN(C(=O)C2=CN(c3cc(F)cc(F)c3)c3ccccc3S2(=O)=O)CC1 |
| 830 | CCC(=O)Nc1ccc(S(=O)(=O)NCCOc2ccc3c(c2)OCO3)cc1 |
| 835 | O=C(Cn1nc2c(Oc3cccc(F)c3)nccn2c1=O)Nc1ccc(F)cc1F |
| 865 | CCOc1ccccc1CNC(=O)Cn1c(CC)nc2onc(C)c2c1=O |
| 735 | O=C(CCc1ccccc1)N1CCC(c2noc(-c3cnccn3)n2)C1 (stereo not drawn) |
| 1040 | COC(=O)c1ccc(NC(=O)C2=Cc3cc(OC)ccc3OC=C2)cc1 |
| 1000 | CCOc1ccc2nc(C(=O)N3CCN(c4ccc(Cl)cc4)CC3)cn2n1 |
| 1230 | CCCn1c(=O)c(C)nc2cc(-c3noc(-c4ccc(F)c(F)c4)n3)ccc21 |
| 1050 | CCOC(=O)COc1ccccc1C1CC(c2ccc(Br)cc2)=NN1C(C)=O (stereo not drawn) |
| 800 | O=S(=O)(NCc1cccnc1-c1ccc(F)cc1)c1cccc(Br)c1 |
| 773 | CCOc1ccc(-c2nc3ncccn3c2NCc2ccc(C)cc2)cc1OC |
| 991 | Cc1ccc(S(=O)(=O)N2CC(=O)N(c3ccccc3C)C(C)(C(=O)NC3CCCC3)C2)cc1 (stereo not drawn) |
| 754 | O=C(CCn1cnc2c(cnn2-c2ccccc2)c1=O)Nc1ccc2c(c1)OCCO2 |

| SMILES | RP-LC retention time [s] |
| --- | --- |
| CN1Cc2ccccc2-n2ccnc2C12CCN(C(=O)NC1CCCCC1)CC2 | 611 |
